Data from US10196601B2, “Cell culture medium and process for controlling α-amidation and/or C-terminal amino acid cleavage of polypeptides” (LEK PHARMACEUTICALS D.D., priority 2013, dated 2019).
Like-named read-outs stand apart in the source and are kept apart here.

Key:
PAM enzyme [1] = experiment: amount of C-terminal α-amidated Pro of the expressed antibody (in vivo PAM activity), SF system; type: cell-based, Chinese hamster
Experimental: (§1) Experiments (using different illustrative glycoproteins) were performed in shake flask (SF) systems, where […] SFs with a final volume of 125 ml were used. All experiments started by thawing of a research working cell bank (rWCB), such as CHO cell line DP-12 (CHO DP-12 clone #1934 [CHO DP-12, clone #1934 aIL8.92 NB 28605/14] (ATCC® CRL-12445™) producing recombinant human anti-IL-8 or CHO-SSF cells expressing a monoclonal antibody directed to tumour necrosis factor, TNF (see PCT/EP2011/074181 for further details) followed by several subcultivations under standard conditions according to manufacture instructions until enough cells for the inoculation were available For all experiments, a 14 days generic fed batch fermentation was used and a generic feeding regime comprising feeding of glucose, glutamine and amino acids was performed. All SFs were incubated in a shaker incubator (Kuhner, Switzerland) at the following conditions: temperature of 36.5° C., CO2=10% and shaking speed 200 rpm.
(§2) At the end of 14 days of BR and SF bioprocesses (i.e., on day 14), harvests were sampled to 50 ml centrifuge tubes. […] Purification was done either using AKTA chromatography system with 1 ml HiTrap column (GE Healthcare, cat. no. 11-0034-93) or TECAN Freedom EVO pipetting station with 200 μl RoboColumns (Atoll, cat. no. 01050408R).
(§3) To measure the amount of C-terminal α-amidated Pro and the amount of C-terminal Lys, Cation Exchange Chromatography (CEX) was performed according to the laboratory procedure. Main charged variants were designated as 0K, pseudo 1K (1+) and pseudo 2K (2+). The positive charge refers to the Lys or α-amidated Pro at the C-terminus of the heavy chain. Charged variants (Lys, α-amidated Pro) were differentiated by CP cleavage of C-terminal Lys followed by the same CEX analysis. Structures eluting before the main three variants were designated as AP (acidic peaks) and those eluting after them as BP (basic peaks).
(§4) The experiment was performed in 500 ml SF with a final volume of 125 ml. After 14 days of fed batch bioprocess, harvests were collected, centrifuged, sterile filtered through a PES membrane and immediately subjected to a single step affinity chromatography (AC) purification and a subsequent analysis of C-terminal α-amidation by […]. Design Expert version 7.1.3 (Stat-Ease, Inc., Minneapolis, USA) was used to build the response surface design and to perform the statistical analysis of the experimental results. A MinRes IV design was used to determine the influence of the tested trace elements on cell productivity, C-terminal α-amidation and C-terminal carboxypeptidation of the investigated monoclonal antibody. Analyzed design expert (Stat-Ease, Inc., Minneapolis, USA) responses included end of fed-batch titer, amount of C-terminal α-amidated Pro and amount of C-terminal Lys.
(§5) The experiment was performed in 500 ml SF with a final volume of 125 ml. After 14 days of fed batch bioprocess, harvests were collected, centrifuged, sterile filtered through a PES membrane and immediately subjected to a single step AC purification and a subsequent analysis of C-terminal α-amidation by […].
(§6) After performing the above described analytical steps, the measured values were inserted into the DOE program and analyzed. The α-value of statistical significance was set to 0.100, which means that factors with a P-value higher than 0.100 were excluded from the statistical mode since they were non-significant.

CHO cells [2] = experiment: cell viability in SF culture (trypan blue exclusion); type: cell-based, Chinese hamster; conditions: experiment 2, SF; selenium 3 μM (data not shown)
Experimental: Experiments (using different illustrative glycoproteins) were performed in shake flask (SF) systems, where […] SFs with a final volume of 125 ml were used.
as §5

[3] = test system: CHO cells expressing a monoclonal antibody; experiment: titer in 5 L bioreactor (BR) fed batch culture; type: cell-based, Chinese hamster; conditions: 5 L BR
Experimental: (§7) All experiments were performed in 5 L BRs.

[4] = test system: CHO cells expressing a monoclonal antibody; experiment: end of fed-batch titer in shake flask (SF) fed batch culture; type: cell-based, Chinese hamster
Experimental: as §1, §4
Effects that were above the Bonferroni limit were certainly significant and effects that were above the t-Value limit were possibly significant. Effects that were below the t-Value limit were not selected as they were not significant. After selecting significant effects, the ANOVA statistical program was employed to confirm that only statistically significant effects were included in the model.
as §5, §6

PAM enzyme [5] = experiment: amount of C-terminal α-amidated Pro (in vivo PAM activity), BR system; type: cell-based, Chinese hamster; conditions: 5 L BR
Experimental: as §2, §3, §7

CHO cells [6] = conditions: 5 L BR
Experimental: All results were finally confirmed in a bioreactor (BR) system, where 5 L glass bioreactors were used.
In both the SF and BR system, the cell growth and cell viability were measured with the Vi-Cell XR analyzer (Beckman Coulter) using the trypan blue exclusion method for cell viability determination and automated cell counting for determination of the cell concentration. The monoclonal antibody content was determined by affinity liquid chromatography (ALC). A calibration curve was made by diluting the generic reference. […] The results were expressed in gram (g) of protein per liter (L) of harvest.
The obtained SF results were finally also tested in a bioreactor (BR) environment. All experiments were performed in 5 L BRs.

CP enzyme [7] = experiment: amount of C-terminal Lys of the expressed antibody (in vivo CP activity), SF system; type: cell-based, Chinese hamster
Experimental: as §1, §2, §3, §4, §5, §6

CP enzyme [8] = experiment: amount of C-terminal Lys (in vivo CP activity), BR system; type: cell-based, Chinese hamster; conditions: 5 L BR
Experimental: as §2, §3, §7
To test the effect of zinc on the CP activity, three different zinc chloride concentrations were tested, namely 3.7 μM, 11 μM and 22 μM. […] In regard to productivity, a constant drop of productivity was measured with the decrease of the zinc concentration.

[Cl][Cu][Cl] [copper, copper chloride]
increase of amount of C-terminal α-amidated Pro (PAM enzyme [1]; experiment 1, SF, 10-fold increased copper (FIG. 4)): 2.5% | amount of C-terminal α-amidated Pro (PAM enzyme [1]; experiment 2, DOE model, copper 0.06 μM): 2.1% | amount of C-terminal α-amidated Pro (PAM enzyme [1]; experiment 2, DOE model, copper 0.18 μM): 2.2%

O=[Se]([O-])[O-].[Na+].[Na+] [selenium, sodium selenite]
viability (CHO cells [2]): below 80% | titer decrease ([3]; 2.31 μM versus 0.17 μM selenium (FIG. 11B)): 1 g/L | titer ([4]; experiment 1, SF, selenium 0.017 μM): 0.4 g/L | effect on titer ([4]; experiment 2, SF, selenium above 3 μM (FIG. 7)): titer decrease | amount of C-terminal α-amidated Pro (PAM enzyme [1]; experiment 1, SF, 10-fold increased selenium (FIG. 4)): 4.5% | amount of C-terminal α-amidated Pro (PAM enzyme [1]; experiment 1, SF, before 10-fold increase of selenium (FIG. 4)): 6.5% | amount of C-terminal α-amidated Pro (PAM enzyme [1]; experiment 2, selenium 0.17 μM (FIG. 8)): 2.2% | amount of C-terminal α-amidated Pro (PAM enzyme [1]; experiment 2, selenium 3.00 μM (FIG. 8)): 1.26% | C-terminal α-amidated Pro (PAM enzyme [5]; 0.17 μM selenium (FIG. 12)): 9.3% | C-terminal α-amidated Pro (PAM enzyme [5]; 2.31 μM selenium (FIG. 12)): 2.25%

[Cl-].[Cl-].[Zn+2] [zinc, zinc chloride]
cell culture growth (CHO cells [6]; 3.7 μM zinc (FIG. 13A)): significantly lower growth | cell culture growth (CHO cells [6]; 11 μM compared with 22 μM zinc (FIG. 13A)): well comparable | final titer ([3]; highest zinc concentration, 22 μM (FIG. 13B)): 3.86 g/L | final titer ([3]; lowest zinc concentration, 3.7 μM (FIG. 13B)): 1.86 g/L | final titer ([3]; zinc 11 μM (FIG. 13B)): 2.90 g/L | titer ([4]; experiment 1 (MinRes IV), SF, 14 days fed batch, zinc 2.201 μM): 0.4 g/L | titer ([4]; experiment 1, SF, zinc 22.012 μM): 0.6 g/L | titer ([4]; experiment 2 (central composite design), DOE model, zinc 7 μM (FIG. 7)): 0.4 g/L | titer ([4]; experiment 2, DOE model, zinc 12 μM (FIG. 7)): above 0.6 g/L | amount of C-terminal Lys (CP enzyme [7]; confirmation, SF, three parallels, 2.3 μM zinc (FIG. 10B)): 15.97%±0.79% | amount of C-terminal Lys (CP enzyme [7]; confirmation, SF, three parallels, unchanged in-house medium, 22 μM zinc (FIG. 10B)): 1.99%±0.08% | amount of C-terminal Lys (CP enzyme [7]; experiment 1, SF, 10-fold increased zinc (FIG. 6)): 8.5% | amount of C-terminal Lys (CP enzyme [7]; experiment 1, SF, before 10-fold increase of zinc (FIG. 6)): 22% | amount of C-terminal Lys (CP enzyme [7]; experiment 2, DOE model, zinc 0.15 μM (FIG. 9)): 15% | amount of C-terminal Lys (CP enzyme [7]; experiment 2, DOE model, zinc 5.00 μM (FIG. 9)): 5% | C-terminal Lys (CP enzyme [8]; 3.7 μM zinc (FIG. 14)): 6% | C-terminal Lys (CP enzyme [8]; 22 μM zinc (FIG. 14)): 3.15%
